These results are taken from patent publication US20070020334A1, “Benzimidazole formulation” (priority 2005, published 2007).

For orientation: pKa means the pH at which an ionisable group is half protonated.

For data set [1] the following is noted: cited from earlier work; for pKa2 / pKa3 / pKa: approximate; for pKa: pKa of the acid.
Data set [2] can be described thus: Particle size by laser light scattering (Malvern). The class given is physicochemical. Particulars: raw material of Table 7. On the procedure:
Samples have been dried for minimum 12 hours at 40° C. prior to the measurements.

SMILES strings stand for the structures. Read-outs that look alike come from different tables or passages of the source.

Consider `N=C(N)NCCC[C@H](N)C(=O)O` [Arginine], for which, in data set [1] (100 g/L H2O), the pH result was “pH≈11.4”. Moreover, in data set [1], the pKa2 result was “pKa2: 9.1” and the pKa3 entry is “pKa3: 13.2”.

`O=C([O-])[O-].[Ca+2]` [Calcium carbonate]: the pKa in data set [1] was 10.3.

`O=C([O-])[O-].[Na+].[Na+]` [DiSodium carbonate]: in data set [1], the pKa is 10.3.

`N[C@@H](Cc1c[nH]cn1)C(=O)O` [Histidine]: the pH result in data set [1] (10 g/L H2O) is recorded as “pH≈7.7”. For the same compound, in data set [1], the pKa3 entry is “pKa3: 9.0”.

Take `NCCCC[C@H](N)C(=O)O` [Lysine]: in data set [1], the pKa2 entry is recorded as “pKa2: 8.9”.

Regarding `COc1ccnc(C[S+]([O-])c2nc3ccc(OC(F)F)cc3[nH]2)c1OC` (stereo not drawn) [Pantoprazole sodium sesquihydrate], in data set [2], the “D(v; 0.5)” value was determined as 7 μm.
